System: Male Sprague Dawley rats
Assay: Hypocalcaemic activity in rats (total serum calcium after i.v. injection)
Type: in vivo, rat
Conditions: fasted rats, blood sampled one hour after dosing, VEHICLE 10.49 + 0.6
Procedure: The hypocalcaemic activity of compounds (I) can be determined as reported for example in J. Endocrinology, 33, 469 (1965).
Male Sprague Dawley rats, about 4 weeks old, were kept under fasting conditions for 24 hours. The compounds were dissolved with BSA buffer (0.1% bovine serum albumin on 0.1M acetate buffer pH 4.5) and injected by the i.v. route into the lateral tail vein at doses of 3-10-30-100 ng/Kg. One hour after the dosing blood was sampled from the tail or neck vessels, then the serum samples obtained.
The serum was diluted with 0.1% lanthanium chloride solution and the concentration of total calcium was determined by Atomic Absorption Spectrophotometry.

Structure (SMILES): CC(C)C[C@H](NC(=O)[C@H](CCCCN)NC(=O)CNC(=O)[C@H](CC(C)C)NC(=O)[C@@H](NC(=O)[C@@H]1CC#CCCC(=O)N[C@@H](CO)C(=O)N[C@@H](CC(N)=O)C(=O)N[C@@H](CC(C)C)C(=O)N[C@@H](CO)C(=O)N[C@@H]([C@@H](C)O)C(=O)N1)C(C)C)C(=O)N[C@@H](CO)C(=O)N[C@@H](CCC(N)=O)C(=O)N[C@@H](CCC(=O)O)C(=O)N[C@@H](CC(C)C)C(=O)N[C@@H](Cc1c[nH]cn1)C(=O)N[C@@H](CCCCN)C(=O)N[C@@H](CC(C)C)C(=O)N[C@@H](CCC(N)=O)C(=O)N[C@H](C(=O)N[C@@H](Cc1ccc(O)cc1)C(=O)N1CCC[C@H]1C(=O)N[C@@H](CCCNC(=N)N)C(=O)N[C@H](C(=O)N[C@@H](C)C(=O)N[C@H](C(=O)NCC(=O)N[C@@H](C)C(=O)NCC(=O)N[C@H](C(=O)N1CCC[C@H]1C(N)=O)[C@@H](C)O)C(C)C)[C@@H](C)O)[C@@H](C)O [Example 4]
- Total serum calcium; mean + S.D. (Dose 3 ng/kg i.v. (lateral tail vein)): 10.09±0.1 mg/100 ml
- Total serum calcium; mean + S.D. (Dose 10 ng/kg i.v. (lateral tail vein)): 8.85±0.25 mg/100 ml
- Total serum calcium; mean + S.D. (Dose 30 ng/kg i.v. (lateral tail vein)): 7.92±0.15 mg/100 ml
- Total serum calcium; mean + S.D. (Dose 100 ng/kg i.v. (lateral tail vein)): 7.66±0.18 mg/100 ml
